The nature of assay [1]: Cytotoxicity against mouse LM3 cells. The assay is classed as functional, cell-based.
The next assay deals with PANC-1. Kind of assay: Cytotoxicity against human PANC1 cells. The assay is classed as functional, cell-based.

From ChEMBL document CHEMBL1268857, “Dolabellane Diterpenoids from the South Atlantic Gorgonian Convexella magelhaenica” (J Nat Prod, 2010) come the findings set out here.

For orientation: IC50 means the concentration that inhibits the measured activity by half.

As to `C=C(C)[C@@H]1CC[C@]2(C)C/C=C(\C)CC/C=C(\C)C(=O)C[C@@H]12`, the values for the 50% inhibitory concentration (IC50) (in assay [1]; in the assay on PANC-1) were 2.5 µM and 39.8 µM, respectively.
Taken in the same sequence, the figures for `C=C(C)[C@@H]1[C@@H](OC(C)=O)C[C@]2(C)[C@H](OC(C)=O)/C=C(\C)CC/C=C(\C)C(=O)C[C@@H]12` were 17.8 µM and 398 µM.
